# Data published in patent US11141413B2, “Method of treating renal cell carcinoma using N-(4-(6,7-dimethoxyquinolin-4-yloxy)phenyl)-N′-(4-fluorophenyl)cyclopropane-1,1-dicarboxamide, (2S)-hydroxybutanedioate” (Exelixis, Inc., priority 2016, dated 2021).
# Values joined by “and” are separate entries in the source; they are usually repeats but may differ in a detail not shown here. Equal values may be shown once.
# System: advanced renal cell carcinoma (RCC)
# Test: METEOR (Study 1) randomized phase 3 trial, cabozantinib vs everolimus: PFS, OS, ORR
# Assay type: in vivo, human
# Settings: for ORR (95% CI), IRC / ORR (95% CI), Investigator assessed / Progressive disease, IRC / Progressive disease, Investigator assessed / Stable disease, IRC / Stable disease, Investigator assessed / Confirmed ORR (95% CI), IRC / Confirmed ORR (95% CI), Investigator assessed / Confirmed responses (95% CI), IRC / Confirmed responses (95% CI), Investigator assessed: RECIST 1.1; for PFS event: all randomized
# [1] = Patients With High Tumor Burden
# [2] = Pts with Bone and Visceral Metastases
# [3] = prior therapy subgroup Anti-PD-1/PD-L1
# [4] = prior therapy subgroup Pazopanib Only
# [5] = prior therapy subgroup Sunitinib Only
smiles,measurement,setting,value
CO[C@H]1C[C@@H]2CC[C@@H](C)[C@@](O)(O2)C(=O)C(=O)N2CCCC[C@H]2C(=O)O[C@H]([C@H](C)C[C@@H]2CC[C@@H](OCCO)[C@H](OC)C2)CC(=O)[C@H](C)/C=C(\C)[C@@H](O)[C@@H](OC)C(=O)[C@H](C)C[C@H](C)/C=C/C=C/C=C/1C [everolimus],Kaplan-Meier estimate of % of patients alive,6 Months landmark,"81% (76%, 85%)"
same,Kaplan-Meier estimate of % of patients alive,12 Months landmark,"63% and 63% (58%, 78%)"
same,Kaplan-Meier estimate of % of patients alive,18 Months landmark,47%
same,Kaplan-Meier estimate of % of patients alive,"18 Months landmark, listed as Everolimus","47% (41%, 52%)"
same,Kaplan-Meier estimate of % of patients alive,24 Months landmark,"31% (23%, 39%)"
same,"ORR (95% CI), IRC",Asia Pacific,2 (0-11) %
same,"ORR (95% CI), Investigator assessed",Asia Pacific,4 (1-15) %
same,"Progressive disease, IRC",Asia Pacific,28%
same,"Progressive disease, Investigator assessed",Asia Pacific,26%
same,"Stable disease, IRC",Asia Pacific,60%
same,"Stable disease, Investigator assessed",Asia Pacific,60%
same,"ORR (95% CI), IRC",Europe,4 (1-8) %
same,"ORR (95% CI), Investigator assessed",Europe,4 (1-8) %
same,"Progressive disease, IRC",Europe,24%
same,"Progressive disease, Investigator assessed",Europe,25%
same,"Stable disease, IRC",Europe,65%
same,"Stable disease, Investigator assessed",Europe,66%
same,Median OS,"ITT, all 658 randomized, cutoff Dec. 31, 2015",16.5 months
same,Median OS,"ITT, all 658 randomized, cutoff Dec. 31, 2015, listed as Everolimus","16.5 (14.7, 18.8) months"
same,"Objective response rate (confirmed, partial responses only) per IRC","ITT, all 658 randomized, cutoff May 22, 2015",3%
same,"Objective response rate (confirmed, partial responses only) per IRC","ITT, all 658 randomized, cutoff May 22, 2015, listed as eve",3%
same,"ORR (95% CI), IRC",North America,2 (1-7) %
same,"ORR (95% CI), Investigator assessed",North America,3 (1-8) %
same,"Progressive disease, IRC",North America,30%
same,"Progressive disease, Investigator assessed",North America,29%
same,"Stable disease, IRC",North America,59%
same,"Stable disease, Investigator assessed",North America,62%
same,"Confirmed ORR (95% CI), IRC",[1],0%
same,"Confirmed ORR (95% CI), Investigator assessed",[1],1 (0-4) %
same,"Progressive disease, IRC",[1],26%
same,"Progressive disease, Investigator assessed",[1],27%
same,"Stable disease, IRC",[1],64%
same,"Stable disease, Investigator assessed",[1],62%
same,"Confirmed ORR (95% CI), IRC",Patients With Low Tumor Burden,7 (3-12) %
same,"Confirmed ORR (95% CI), Investigator assessed",Patients With Low Tumor Burden,7 (4-13) %
same,"Progressive disease, IRC",Patients With Low Tumor Burden,28%
same,"Progressive disease, Investigator assessed",Patients With Low Tumor Burden,27%
same,"Stable disease, IRC",Patients With Low Tumor Burden,60%
same,"Stable disease, Investigator assessed",Patients With Low Tumor Burden,64%
same,"Confirmed responses (95% CI), IRC",Pts with Bone Metastases,0%
same,"Confirmed responses (95% CI), Investigator assessed",Pts with Bone Metastases,0%
same,"Progressive disease, IRC",Pts with Bone Metastases,37%
same,"Progressive disease, Investigator assessed",Pts with Bone Metastases,26%
same,"Stable disease, IRC",Pts with Bone Metastases,54%
same,"Stable disease, Investigator assessed",Pts with Bone Metastases,63%
same,"Confirmed responses (95% CI), IRC",[2],0%
same,"Confirmed responses (95% CI), Investigator assessed",[2],0%
same,"Progressive disease, IRC",[2],44%
same,"Progressive disease, Investigator assessed",[2],29%
same,"Stable disease, IRC",[2],44%
same,"Stable disease, Investigator assessed",[2],59%
same,"Confirmed responses (95% CI), IRC",Pts without Bone Metastases,4 (2-7) %
same,"Confirmed responses (95% CI), Investigator assessed",Pts without Bone Metastases,5 (3-9) %
same,"Progressive disease, IRC",Pts without Bone Metastases,24%
same,"Progressive disease, Investigator assessed",Pts without Bone Metastases,26%
same,"Stable disease, IRC",Pts without Bone Metastases,64%
same,"Stable disease, Investigator assessed",Pts without Bone Metastases,63%
same,Objective response rate per investigator,"all 658 randomized, cutoff May 22, 2015",4%
same,Median duration of PFS,"all 658 randomized, per IRC, cutoff May 22, 2015",3.9 months
same,Median duration of PFS,"all 658 randomized, per IRC, cutoff May 22, 2015, listed as Everolimus",3.9 (3.7-5.1) months and 3.9 months
same,Median duration of PFS,"all 658 randomized, per investigator, cutoff May 22, 2015",5.1 (3.9-5.5) months
same,PFS event,"per IRC, cutoff May 22, 2015",214 (66) ^ n (%)
same,PFS event,"per investigator, cutoff May 22, 2015",233 (71) ^ n (%)
same,Median PFS,"first 375 randomized, per independent radiology review committee (IRC)",3.8 months
same,Median PFS,"first 375 randomized, per independent radiology review committee (IRC), listed as Everolimus","3.8 (3.7, 5.4) months"
same,Median PFS,"first 375 randomized, per independent radiology review committee (IRC), listed as eve",3.8 months
same,Median OS,high MET tumor expression,15.2 months
same,Median OS,high tumor burden,12.2 mo
same,Patients with reduction in measurable tumor lesion size,in vivo,48%
same,Median OS,low MET tumor expression,18.4 months
same,Median OS,low tumor burden,19.3 mo
same,Median OS,patients enrolled in Canada,12.8 mo
same,Median PFS,patients enrolled in Canada,3.7 mo
same,ORR,patients enrolled in Canada,0%
same,Median PFS,patients with bone and visceral metastases,1.9 mo
same,Median PFS,patients with bone metastases,2.7 mo
same,Best overall response: confirmed complete response,per IRC,0 n
same,Best overall response: confirmed partial response,per IRC,11 n
same,Best overall response: confirmed complete response,per investigator,0 n
same,"Confirmed ORR (95% CI), tumor response by IRC",[3],0%
same,"Confirmed ORR (95% CI), tumor response by investigator",[3],0%
same,"Progressive disease, tumor response by IRC",[3],29%
same,"Progressive disease, tumor response by investigator",[3],14%
same,"Stable disease, tumor response by IRC",[3],64%
same,"Stable disease, tumor response by investigator",[3],86%
same,"Confirmed ORR (95% CI), tumor response by IRC",[4],4 (1-10) %
same,"Confirmed ORR (95% CI), tumor response by investigator",[4],4 (1-10) %
same,"Progressive disease, tumor response by IRC",[4],22%
same,"Progressive disease, tumor response by investigator",[4],27%
same,"Stable disease, tumor response by IRC",[4],66%
same,"Stable disease, tumor response by investigator",[4],64%
same,"Confirmed ORR (95% CI), tumor response by IRC",[5],3 (1-8) %
same,"Confirmed ORR (95% CI), tumor response by investigator",[5],4 (1-9) %
same,"Progressive disease, tumor response by IRC",[5],35%
same,"Progressive disease, tumor response by investigator",[5],29%
same,"Stable disease, tumor response by IRC",[5],57%
same,"Stable disease, tumor response by investigator",[5],63%
same,Deaths,"second interim analysis of OS, of randomized patients",55%
